# Structures can show the parent of a compound that is named as a salt.
# System: lean overnight fasted rats
# Test: Fasted-refed acute feeding assay (reduction of food intake)
# Type: in vivo, rat
# Conditions: 10 mg/kg p.o., single dose, measured at time points from 30 to 240 minutes
# Text: Evaluation of Compound's Efficacy on the Reduction of Food Intake (Suppression of Appetite) in Lean Overnight Fasted Rats
# Fasted-Refed Acute Feeding Assay
# The purpose of this protocol is to determine the effect of a single dose of an unknown compound on food consumption of lean overnight fasted rats. The fasted-refed rat model is frequently used in the field of obesity to identify compounds with potential for anorectic effects. This animal model has been successfully used in the identification and characterization of the efficacy profile of compounds that are or have been used in the management of body weight in obese humans (see, e.g., Balvet et al., Gen. Pharmacol. 13:293-297, 1982; Grignaschi et al., Br. J. Pharmacol. 127:1190-1194, 1999; McTavish and Heel, Drug 43:713-733, 1992; Rowland et al., Life Sci. 36:2295-2300, 1985). […]
# The vehicle test: The rats are grouped based upon their performance on a vehicle test. […] After 1 hour, the spillage is returned to the food jar and the amount of food consumed is determined. […]
# The efficacy test: The rats are fasted overnight during the dark phase (total of approx. 16-18 hr). […] Food intake is recorded 30, 60, 90, 180, and 240 minutes post-food return. […] The amount of food consumed is determined for each time point. Difference between treatment group is determined using appropriate statistical analysis.
row,SMILES,food consumption was reduced (relative to the food consumption observed for the vehicle control group)
1,"Cc1c(C(=O)NN2CCCCC2)cc(-c2ccc(Cl)cc2)n1-c1ccccc1Cl [Entry 23, 1-(2-chlorophenyl)-5-(4-chlorophenyl)-2-methyl-N-(1-piperidinyl)-1H-pyrrole-3-carboxamide hydrochloride]",up to 25%
2,"COc1ccc(-c2c(C)c(C(=O)NNc3ccc(C(F)(F)F)cc3)c(C)n2-c2ccccc2Cl)cc1.Cl [Entry 43, 1-(2-chlorophenyl)-5-(4-methoxyphenyl)-2,4-dimethyl-N′-[4-(trifluoromethyl)phenyl]-1H-pyrrole-3-carbohydrazide hydrochloride]",up to 35%

# — patent publication US20040267028A1, “Preparation and use of pyrrole derivatives for treating obesity” (priority 2001, published 2004)
